Test results taken from patent US8609635B2, “Fused tricyclic silyl compounds and methods of use thereof for the treatment of viral diseases” (priority 2010, dated 2013).

Key:
HCV replicon gt1a_H77 = test: Cell-based HCV replicon assay (TaqMan), genotype 1a (H77); settings: Hepatitis C virus, 72 h, replicon 1a (H77); replicon RNA by TaqMan, day 3
How it was run: (§1)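 Replicon cells seeded at 5000 cells/well with compound (10 serial 2-fold dilutions from 250 μM to 1 μM top dose; 0.5% DMSO, 5% FBS) and lysed on day 3. Replicon RNA quantified by multiplex TaqMan RT-PCR (NS5B amplicon, GAPDH control); ΔCT versus concentration fitted to sigmoid dose-response. Chimeras carry patient-isolate NS5A.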

HCV replicon gt1b_con1 = test: Cell-based HCV replicon assay (TaqMan), genotype 1b (Con1); settings: Hepatitis C virus, 72 h; replicon 1b (Con1); replicon RNA by TaqMan, day 3
How it was run: as §1

HCV replicon gt2a_JFH = test: Cell-based HCV replicon assay (TaqMan), genotype 2a (JFH); settings: Hepatitis C virus, 72 h, replicon 2a (JFH); replicon RNA by TaqMan, day 3
How it was run: as §1

[1] = tested on: HCV chimeric replicon with NS5A of genotype 3a (NC00982); test: Cell-based HCV replicon assay (TaqMan), chimeric replicon genotype 3a (NC00982); settings: Hepatitis C virus, 72 h, read-out: HCV replicon EC50 3a (NC00982), chimeric replicon 3a (NC00982); replicon RNA by TaqMan, day 3
How it was run: as §1

[2] = tested on: HCV replicon 1a (Y93H) mutant; test: Cell-based HCV replicon assay (TaqMan), genotype 1a mutant Y93H; settings: Hepatitis C virus, 72 h, read-out: HCV replicon EC50 1a (Y93H)
How it was run: as §1

[3] = tested on: HCV replicon 1a (L31V) mutant; test: Cell-based HCV replicon assay (TaqMan), genotype 1a mutant L31V; settings: Hepatitis C virus, 72 h, read-out: HCV replicon EC50 1a (L31V)
How it was run: as §1

[4] = Pharmacokinetic analysis in rats; format: in vivo, Male Sprague-Dawley rats; settings: Rat, dihydrochloride salt, 5 mpk/PO, 2.5 mpk/IV
Protocol: Various pharmacokinetic parameters for compound 56 were measured in rats, dogs and monkeys as described below.
Male Sprague-Dawley rats (Charles River, Co.) were pre-cannulated (femoral artery) in order to facilitate precise blood sampling times, to increase throughput and to reduce the stress on the animals caused by serial bleedings. Following an overnight fast, rats were dosed with the dihydrochloride salt of compound 56 orally at 5 mg/kg as a suspension in 0.4% hydroxylpropyl methylcellulose (HPMC) or intravenously at 2.5 mg/kg as a solution in 20% hydroxypropyl-β-cyclodextrin (20% HPβCD). Blood was collected into heparin-containing tubes serially from each animal at 0.25, 0.5, 1, 2, 4, 6, 8, 24 and 48 hr (PO), and 0.167, 0.25, 0.5, 1, 2, 4, 6, 8, 24 and 48 hr (IV) post-dosing and centrifuged to generate plasma. The plasma samples were stored at […] until analysis.
Collected plasma samples were analyzed for the presence of compound 56 using LC-MS/MS as described below.
The HPLC/API-MS/MS system for the example data consisted of a HPLC pumping system and a auto sampler with the sample tray refrigeration option connected directly to a triple quadrupole mass spectrometer with an API source. Typical HPLC methods for the example data was based on a fast gradient of two solvents: solvent A consisted of 0.1% formic acid in water, and solvent B consisted of 0.1% formic acid in acetonitrile. A fast linear gradient (start at 90% A for 0.2 min, ramp to 95% B from 0.2 to 0.5 min, hold at 95% B […], then ramp back to 90% A from 1.0 to 1.1 min, then hold at, […] from 1.1 to 1.2 min) was used. The flow rate for the HPLC system was set to 1 mL/min throughout the HPLC gradient; the HPLC column was a Halo C18 column (2.7 micron particle size, 50×2.1 mm). The example compounds were analyzed by positive ion atmospheric pressure chemical ionization tandem mass spectrometry (APCI-MS/MS). As a general procedure, selected reaction monitoring (SRM) methods were developed for each compound prior to analysis of the plasma samples. Normally, the individual SRM transitions were based on a fragmentation from the protonated molecule ([MH].) to a characteristic product ion.
Using the methods described above, the following pharmacokinetic parameters were calculated in rats, dogs and monkeys and the results are summarized in the table below.

SMILES: COC(=O)N[C@H](C(=O)N1CC(F)(F)C[C@H]1c1ncc(-c2ccc(-c3ccc4c(ccc5nc([C@@H]6C[Si](C)(C)CN6C(=O)[C@@H](NC(=O)OC)C(C)C)[nH]c54)c3)cc2)[nH]1)C(C)C [Compound 56]
- EC50 (HCV replicon gt1a_H77): 0.016 nM
- EC50 (HCV replicon gt1b_con1): 0.003 nM
- EC50 (HCV replicon gt2a_JFH): 0.027 nM
- EC50 [1]: 0.35 nM
- EC50 [2]: 46 nM
- EC50 [3]: 16 nM
- Effective Half-Life [4]: 7.6 h
- Systemic Clearance [4]: 5.6 mL/min/kg
- Volume of Distribution [4]: 3.7 L/kg
- Oral Bioavailability ([4]; dose-normalized AUC between PO and IV): 28%
